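Method: 48-hour compound exposure of cells in 96-well plates, five concentrations, linear interpolation of endpoints. GI50: concentration for 50% inhibition of growth. TGI denotes the concentration required for complete inhibition of growth.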
Tests used:
Test in all cases: NCI anticancer screen, dose series, 48 h
786-0 renal = tested on: 786-0 renal
A498 renal = tested on: A498 renal
A549 NSCLC = tested on: A549 NSCLC
ACHN renal = tested on: ACHN renal
BT-549 breast = tested on: BT-549 breast
CCRF-CEM leukemia = tested on: CCRF-CEM leukemia
COLO 205 colon = tested on: COLO 205 colon
DU-145 prostate = tested on: DU-145 prostate
EKVX NSCLC = tested on: EKVX NSCLC
HCC-2998 colon = tested on: HCC-2998 colon
HCT-116 colon = tested on: HCT-116 colon
HCT-15 colon = tested on: HCT-15 colon
HL-60(TB) leukemia = tested on: HL-60(TB) leukemia
HOP-62 NSCLC = tested on: HOP-62 NSCLC
HOP-92 NSCLC = tested on: HOP-92 NSCLC
HS 578T breast = tested on: HS 578T breast
HT29 colon = tested on: HT29 colon
IGROV1 ovarian = tested on: IGROV1 ovarian
K-562 leukemia = tested on: K-562 leukemia
KM12 colon = tested on: KM12 colon
LOX IMVI melanoma = tested on: LOX IMVI melanoma
M14 melanoma = tested on: M14 melanoma
MALME-3M melanoma = tested on: MALME-3M melanoma
MCF7 breast = tested on: MCF7 breast
MDA-MB-231 breast = tested on: MDA-MB-231 breast
MDA-MB-435 = tested on: MDA-MB-435
MOLT-4 leukemia = tested on: MOLT-4 leukemia
NCI-H226 lung = tested on: NCI-H226 lung
NCI-H23 lung = tested on: NCI-H23 lung
NCI-H460 lung = tested on: NCI-H460 lung
NCI-H522 lung = tested on: NCI-H522 lung
NCI/ADR-RES ovarian = tested on: NCI/ADR-RES ovarian
OVCAR-3 ovarian = tested on: OVCAR-3 ovarian
OVCAR-4 ovarian = tested on: OVCAR-4 ovarian
OVCAR-5 ovarian = tested on: OVCAR-5 ovarian
OVCAR-8 ovarian = tested on: OVCAR-8 ovarian
PC-3 prostate = tested on: PC-3 prostate
RPMI-8226 leukemia = tested on: RPMI-8226 leukemia
RXF 393 renal = tested on: RXF 393 renal
SF-268 CNS = tested on: SF-268 CNS
SF-295 CNS = tested on: SF-295 CNS
SF-539 CNS = tested on: SF-539 CNS
SK-MEL-2 melanoma = tested on: SK-MEL-2 melanoma
SK-MEL-28 melanoma = tested on: SK-MEL-28 melanoma
SK-MEL-5 melanoma = tested on: SK-MEL-5 melanoma
SK-OV-3 ovarian = tested on: SK-OV-3 ovarian
SN12C renal = tested on: SN12C renal
SNB-19 CNS = tested on: SNB-19 CNS
SNB-75 CNS = tested on: SNB-75 CNS
SW-620 colon = tested on: SW-620 colon
T-47D breast = tested on: T-47D breast
TK-10 renal = tested on: TK-10 renal
U251 CNS = tested on: U251 CNS
UACC-257 melanoma = tested on: UACC-257 melanoma
UACC-62 melanoma = tested on: UACC-62 melanoma
UO-31 renal = tested on: UO-31 renal

In the case of CC(=O)c1cc2c(c(O)c1C)C(=O)C(=O)c1c(O)cccc1-2, the GI50 (786-0 renal) is reported as 421 nM, the TGI (786-0 renal) is reported as 897 nM and the GI50 (A498 renal) is reported as 962 nM. It also gave a TGI (A498 renal) of 2380 nM, a GI50 (A549 NSCLC) of 565 nM and a TGI (A549 NSCLC) of 1240 nM. For the same compound, the GI50 (ACHN renal) was 289 nM, the TGI (ACHN renal) was 1120 nM and the GI50 (BT-549 breast) was 140 nM. The TGI (BT-549 breast) was 274 nM, the GI50 (CCRF-CEM leukemia) was 460 nM and the TGI (CCRF-CEM leukemia) was over 100 µM. For the same compound, the GI50 (COLO 205 colon) was 342 nM, the TGI (COLO 205 colon) was 872 nM and the GI50 (DU-145 prostate) was 56.8 nM. It also gave a TGI (DU-145 prostate) of 102 nM, a GI50 (EKVX NSCLC) of 673 nM and a TGI (EKVX NSCLC) of 3.36 µM. It also gave a GI50 (HCC-2998 colon) of 330 nM, a TGI (HCC-2998 colon) of 776 nM and a GI50 (HCT-116 colon) of 216 nM. The TGI (HCT-116 colon) was 506 nM, the GI50 (HCT-15 colon) was 113 nM and the TGI (HCT-15 colon) was 302 nM. For the same compound, the GI50 (HL-60(TB) leukemia) was 89.5 nM, the TGI (HL-60(TB) leukemia) was 271 nM and the GI50 (HOP-62 NSCLC) was 175 nM. The TGI (HOP-62 NSCLC) was 365 nM, the GI50 (HOP-92 NSCLC) was 906 nM and the TGI (HOP-92 NSCLC) was 1880 nM. For the same compound, the GI50 (HS 578T breast) was 248 nM, the TGI (HS 578T breast) was 1300 nM and the GI50 (HT29 colon) was 319 nM. It also gave a TGI (HT29 colon) of 1490 nM, a GI50 (IGROV1 ovarian) of 521 nM and a TGI (IGROV1 ovarian) of 1340 nM. It also gave a GI50 (K-562 leukemia) of 281 nM, a TGI (K-562 leukemia) of 1050 nM and a GI50 (KM12 colon) of 411 nM. For the same compound, the TGI (KM12 colon) was 1740 nM, the GI50 (LOX IMVI melanoma) was 53.9 nM and the TGI (LOX IMVI melanoma) was 101 nM. For the same compound, the GI50 (M14 melanoma) was 60.5 nM, the TGI (M14 melanoma) was 121 nM and the GI50 (MALME-3M melanoma) was 65.4 nM. It also gave a TGI (MALME-3M melanoma) of 139 nM, a GI50 (MCF7 breast) of 57.6 nM and a TGI (MCF7 breast) of 134 nM. It also gave a GI50 (MDA-MB-231 breast) of 277 nM, a TGI (MDA-MB-231 breast) of 2260 nM and a GI50 (MDA-MB-435) of 56.3 nM. It also gave a TGI (MDA-MB-435) of 107 nM, a GI50 (MOLT-4 leukemia) of 348 nM and a TGI (MOLT-4 leukemia) of 1440 nM. The GI50 (NCI-H226 lung) was 554 nM, the TGI (NCI-H226 lung) was 1050 nM and the GI50 (NCI-H23 lung) was 66.6 nM. The TGI (NCI-H23 lung) was 154 nM, the GI50 (NCI-H460 lung) was 460 nM and the TGI (NCI-H460 lung) was 1090 nM. It also gave a GI50 (NCI-H522 lung) of 281 nM, a TGI (NCI-H522 lung) of 888 nM and a GI50 (NCI/ADR-RES ovarian) of 360 nM. For the same compound, the TGI (NCI/ADR-RES ovarian) was 1390 nM, the GI50 (OVCAR-3 ovarian) was 76.8 nM and the TGI (OVCAR-3 ovarian) was 280 nM. For the same compound, the GI50 (OVCAR-4 ovarian) was 199 nM, the TGI (OVCAR-4 ovarian) was 636 nM and the GI50 (OVCAR-5 ovarian) was 526 nM. The TGI (OVCAR-5 ovarian) was 1010 nM, the GI50 (OVCAR-8 ovarian) was 308 nM and the TGI (OVCAR-8 ovarian) was 936 nM. The GI50 (PC-3 prostate) was 510 nM, the TGI (PC-3 prostate) was 2030 nM and the GI50 (RPMI-8226 leukemia) was 615 nM. The TGI (RPMI-8226 leukemia) was 1900 nM, the GI50 (RXF 393 renal) was 157 nM and the TGI (RXF 393 renal) was 416 nM. For the same compound, the GI50 (SF-268 CNS) was 133 nM, the TGI (SF-268 CNS) was 471 nM and the GI50 (SF-295 CNS) was 290 nM. For the same compound, the TGI (SF-295 CNS) was 763 nM, the GI50 (SF-539 CNS) was 150 nM and the TGI (SF-539 CNS) was 285 nM. It also gave a GI50 (SK-MEL-2 melanoma) of 272 nM, a TGI (SK-MEL-2 melanoma) of 922 nM and a GI50 (SK-MEL-28 melanoma) of 163 nM. It also gave a TGI (SK-MEL-28 melanoma) of 365 nM, a GI50 (SK-MEL-5 melanoma) of 56.5 nM and a TGI (SK-MEL-5 melanoma) of 105 nM. The GI50 (SK-OV-3 ovarian) was 565 nM, the TGI (SK-OV-3 ovarian) was 1120 nM and the GI50 (SN12C renal) was 59.2 nM. It also gave a TGI (SN12C renal) of 117 nM, a GI50 (SNB-19 CNS) of 163 nM and a TGI (SNB-19 CNS) of 345 nM. For the same compound, the GI50 (SNB-75 CNS) was 153 nM, the TGI (SNB-75 CNS) was 301 nM and the GI50 (SW-620 colon) was 120 nM. The TGI (SW-620 colon) was 387 nM, the GI50 (T-47D breast) was 554 nM and the TGI (T-47D breast) was 3.17 µM. For the same compound, the GI50 (TK-10 renal) was 560 nM, the TGI (TK-10 renal) was 1010 nM and the GI50 (U251 CNS) was 247 nM. It also gave a TGI (U251 CNS) of 659 nM, a GI50 (UACC-257 melanoma) of 188 nM and a TGI (UACC-257 melanoma) of 366 nM. The GI50 (UACC-62 melanoma) was 164 nM, the TGI (UACC-62 melanoma) was 354 nM and the GI50 (UO-31 renal) was 247 nM. It also gave a TGI (UO-31 renal) of 742 nM.
